# Test results taken from patent US9499535B2, “Kinase inhibitors” (ORIGENIS GMBH, priority 2011, dated 2016).
# Tests used:
# SYK kinase = target: T1, SYK kinase (Homo sapiens, UniProt P43405); experiment: SYK assay (OMNIA Kinase Assay, Invitrogen); assay type: biochemical; details: apparent Ki calculated from the IC50 using the Cheng-Prusoff equation; 1 mM ATP, 10 μM Peptide Substrate; read-out: SYK Activities: Ki
# T1 construct: purchased Invitrogen, Carlsbad
# Procedure, shortened: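 Reaction velocities were measured from kinetic fluorescence reads (360/485 nm, every 30 s over 30 min) of Mg2+-chelated SOX signal. Conditions were 1 mM ATP, 10 μM Omnia Tyr 7 peptide and 0.2 mM DTT at 30° C. Sigmoidal IC50 fits were converted to apparent Ki using Cheng-Prusoff.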
# LRRK2 = LRRK2 (Homo sapiens, UniProt Q5S007); experiment: LRRK2 assay (LanthaScreen Eu Kinase Binding Assay); details: 5 nM LRRK2, 10 nM tracer 236, RT 1 h; read-out: LRRK2 Activites: IC50
# Excerpt: Binding of the tracer to the kinase is detected using a europium-labeled anti-tag antibody, which binds to the kinase of interest. […] Binding of an inhibitor to the kinase competes for binding with the tracer, resulting in a loss of FRET. The fluorescence intensity ratio is directly proportional to the amount of peptide phosphorylation.
# The inhibitor concentration was plotted versus the emission ratio to determine the IC50 using XLFit 5.0 (IDBS, Guildford) to fit to a sigmoidal dose response curve with a variable slope.
# Sequence of LRRK2 (Q5S007 970-2527 limits assumed): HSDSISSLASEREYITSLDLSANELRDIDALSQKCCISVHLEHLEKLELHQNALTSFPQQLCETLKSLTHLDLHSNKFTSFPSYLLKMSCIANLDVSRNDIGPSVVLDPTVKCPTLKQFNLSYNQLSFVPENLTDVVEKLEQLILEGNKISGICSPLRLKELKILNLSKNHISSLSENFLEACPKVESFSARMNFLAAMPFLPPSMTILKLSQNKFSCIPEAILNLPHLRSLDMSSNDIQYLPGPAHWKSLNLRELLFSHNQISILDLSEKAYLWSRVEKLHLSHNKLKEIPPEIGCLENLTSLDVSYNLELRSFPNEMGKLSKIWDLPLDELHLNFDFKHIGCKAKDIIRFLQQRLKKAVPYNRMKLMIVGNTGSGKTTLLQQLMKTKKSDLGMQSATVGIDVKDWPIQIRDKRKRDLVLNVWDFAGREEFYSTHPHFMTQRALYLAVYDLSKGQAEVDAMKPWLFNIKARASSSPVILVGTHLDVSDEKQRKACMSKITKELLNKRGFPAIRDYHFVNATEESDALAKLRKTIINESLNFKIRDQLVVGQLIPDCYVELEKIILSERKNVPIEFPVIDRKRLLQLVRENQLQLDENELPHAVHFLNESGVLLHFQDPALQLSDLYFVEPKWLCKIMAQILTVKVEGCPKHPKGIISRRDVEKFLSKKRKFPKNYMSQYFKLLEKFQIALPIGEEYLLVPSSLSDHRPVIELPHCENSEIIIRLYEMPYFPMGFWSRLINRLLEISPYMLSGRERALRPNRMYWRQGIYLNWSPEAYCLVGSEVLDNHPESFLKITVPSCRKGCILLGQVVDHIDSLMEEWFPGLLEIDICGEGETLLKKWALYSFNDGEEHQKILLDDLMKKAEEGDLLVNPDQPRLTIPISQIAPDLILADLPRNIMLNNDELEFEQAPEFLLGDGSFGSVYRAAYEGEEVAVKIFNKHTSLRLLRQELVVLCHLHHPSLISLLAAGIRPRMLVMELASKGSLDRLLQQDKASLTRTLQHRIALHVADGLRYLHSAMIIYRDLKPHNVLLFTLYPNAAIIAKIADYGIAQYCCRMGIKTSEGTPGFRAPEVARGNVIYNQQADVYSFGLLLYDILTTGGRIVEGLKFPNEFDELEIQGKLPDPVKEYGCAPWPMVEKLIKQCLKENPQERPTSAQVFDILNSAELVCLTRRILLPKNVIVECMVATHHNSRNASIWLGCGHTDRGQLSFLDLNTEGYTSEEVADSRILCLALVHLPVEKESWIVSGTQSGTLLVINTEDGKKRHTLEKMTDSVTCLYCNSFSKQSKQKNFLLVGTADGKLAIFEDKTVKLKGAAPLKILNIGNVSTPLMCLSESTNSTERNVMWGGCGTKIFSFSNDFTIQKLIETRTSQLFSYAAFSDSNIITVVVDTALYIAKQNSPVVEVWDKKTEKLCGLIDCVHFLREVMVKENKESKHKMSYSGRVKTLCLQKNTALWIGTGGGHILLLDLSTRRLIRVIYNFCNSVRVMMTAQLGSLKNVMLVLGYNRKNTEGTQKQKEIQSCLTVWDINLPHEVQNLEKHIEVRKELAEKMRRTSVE
SMILES,Ki (SYK kinase) [nM],IC50 (LRRK2) [nM]
"COc1ccc2nc(Nc3cccc(O)c3)c3[nH]ncc3c2c1 [Example #113, 3-(8-Methoxy-3H-pyrazolo[3,4-c]quinolin-4-ylamino)-phenol]",10 to 100,100 to 1000
"COc1cc(Nc2nc3ccccc3c3c[nH]nc23)cc(OC)c1OC [Example #3, (2H-Pyrazolo[3,4-c]quinolin-4-yl)-(3,4,5-trimethoxy-phenyl)-amine]",100 to 1000,100 to 1000
"COc1ccc2nc(Nc3ccc(N4CCSCC4)cc3)c3[nH]ncc3c2c1 [Example #293, 8-methoxy-N-(4-thiomorpholinophenyl)-2H-pyrazolo[3,4-c]quinolin-4-amine]",< 10,10 to 100
"COc1ccc2nc(Nc3cc(C(C)(C)C)[nH]n3)c3[nH]ncc3c2c1 [Example #95, (5-tert-Butyl-1H-pyrazol-3-yl)-(8-methoxy-3H-pyrazolo[3,4-c]quinolin-4-yl)-amine]",10 to 100,10 to 100
"CS(=O)(=O)c1cccc(Nc2nc3cccc(F)c3c3cn[nH]c23)c1 [Example #362, 9-fluoro-N-(3-(methylsulfonyl)phenyl)-3H-pyrazolo[3,4-c]quinolin-4-amine]",< 10,100 to 1000
"COc1ccc2nc(Nc3ccc4c(c3)c(C)c(C)n4C)c3n[nH]cc3c2c1 [Example #138, (8-Methoxy-2H-pyrazolo[3,4-c]quinolin-4-yl)-(1,2,3-trimethyl-1H-indol-5-yl)-amine]",100 to 1000,100 to 1000
"COc1ccc2nc(Nc3ccc4c(c3)n(C)c(=O)n4C)c3n[nH]cc3c2c1 [Example #189, 5-(8-Methoxy-2H-pyrazolo[3,4-c]quinolin-4-ylamino)-1,3-dimethyl-1,3-dihydro-benzoimidazol-2-one]",10 to 100,100 to 1000
"COc1ccc2nc(Nc3ccc(NC(=O)C(F)(F)F)cc3)c3n[nH]cc3c2c1 [Example #312, 2,2,2-trifluoro-N-(4-((8-methoxy-2H-pyrazolo[3,4-c]quinolin-4-yl)amino)phenyl)acetamide]",100 to 1000,100 to 1000
"COc1ccc2nc(Nc3ccc(N4CCCCC4)cc3)c3n[nH]cc3c2c1 [Example #50, (8-Methoxy-2H-pyrazolo[3,4-c]quinolin-4-yl)-(4-piperidin-1-yl-phenyl)-amine]",10 to 100,100 to 1000
"COc1ccc2nc(Nc3ccc(CC(=O)O)cc3)c3n[nH]cc3c2c1 [Example #285, 2-(4-((8-methoxy-2H-pyrazolo[3,4-c]quinolin-4-yl)amino)phenyl)acetic acid]",100 to 1000,100 to 1000
"COc1ccc2nc(Nc3ccc(OCC(=O)O)c(OC)c3)c3n[nH]cc3c2c1 [Example #279, 2-(2-methoxy-4-((8-methoxy-2H-pyrazolo[3,4-c]quinolin-4-yl)amino)phenoxy)acetic-acid]",100 to 1000,100 to 1000
"COc1ccc2nc(Nc3ccc(C(=O)N4CCC4)cc3)c3n[nH]cc3c2c1 [Example #302, azetidin-1-yl(4-((8-methoxy-2H-pyrazolo[3,4-c]quinolin-4-yl)amino)phenyl)methanone]",10 to 100,< 10
"CCOc1ccc(Nc2nc3ccc(OC)cc3c3cn[nH]c23)cc1OCC [Example #114, (3,4-Diethoxy-phenyl)-(8-methoxy-3H-pyrazolo[3,4-c]quinolin-4-yl)-amine]",100 to 1000,100 to 1000
"COc1ccc2nc(Nc3ccc(N4CCOCC4)nc3)c3[nH]ncc3c2c1 [Example #103, (8-Methoxy-3H-pyrazolo[3,4-c]quinolin-4-yl)-(6-morpholin-4-yl-pyridin-3-yl)-amine]",10 to 100,100 to 1000
"COc1ccc2nc(Nc3ccc(N4CCOCC4)c(F)c3)c3n[nH]cc3c2c1 [Example #181, (3-Fluoro-4-morpholin-4-yl-phenyl)-(8-methoxy-2H-pyrazolo[3,4-c]quinolin-4-yl)-amine]",10 to 100,100 to 1000
"COc1ccc(Nc2nc3cccc(F)c3c3cn[nH]c23)cc1OC [Example #361, N-(3,4-dimethoxyphenyl)-9-fluoro-3H-pyrazolo[3,4-c]quinolin-4-amine]",100 to 1000,100 to 1000
"O=C1COc2ccc(Nc3nc4ccccc4c4cn[nH]c34)cc2N1 [Example #46, 6-(3H-Pyrazolo[3,4-c]quinolin-4-ylamino)-4H-benzo[1,4]oxazin-3-one]",10 to 100,100 to 1000
"COc1ccc(Nc2nc3ccc(OC)cc3c3c[nH]nc23)cc1 [Example #61, (4-Methoxy-phenyl)-(8-methoxy-2H-pyrazolo[3,4-c]quinolin-4-yl)-amine]",10 to 100,100 to 1000
"COc1ccc2nc(Nc3ccc4c(c3)NCCC4)c3n[nH]cc3c2c1 [Example #196, (8-Methoxy-2H-pyrazolo[3,4-c]quinolin-4-yl)-(1,2,3,4-tetrahydro-quinolin-7-yl)-amine]",10 to 100,100 to 1000

SMILES,Ki (SYK kinase) [nM],IC50 (LRRK2) [nM]
"COc1cccc2c1nc(Nc1ccc3c(c1)NC(=O)CO3)c1n[nH]cc12 [Example #250, 6-((6-methoxy-2H-pyrazolo[3,4-c]quinolin-4-yl)amino)-2H-benzo[b][1,4]oxazin-3(4H)-one]",10 to 100,100 to 1000
"COc1ccc2nc(Nc3cc(C4CC4)[nH]n3)c3[nH]ncc3c2c1 [Example #97, (5-Cyclopropyl-1H-pyrazol-3-yl)-(8-methoxy-3H-pyrazolo[3,4-c]quinolin-4-yl)-amine]",< 10,10 to 100
"Brc1ccc2nc(Nc3ccc4[nH]ncc4c3)c3n[nH]cc3c2c1 [Example #45, (8-Bromo-2H-pyrazolo[3,4-c]quinolin-4-yl)-(1H-indazol-5-yl)-amine]",10 to 100,100 to 1000
"COc1cccc2c1nc(Nc1ccc(N3CCOCC3)cc1)c1[nH]ncc12 [Example #170, (6-Methoxy-2H-pyrazolo[3,4-c]quinolin-4-yl)-(4-morpholin-4-yl-phenyl)-amine]",10 to 100,100 to 1000
"COc1cccc2c1nc(Nc1ccc3c(c1)NCCO3)c1n[nH]cc12 [Example #168, (3,4-Dihydro-2H-benzo[1,4]oxazin-6-yl)-(6-methoxy-2H-pyrazolo[3,4-c]quinolin-4-yl)-amine]",10 to 100,100 to 1000
"COc1ccc2nc(Nc3ccc4c(c3)N=C(NCCc3ccccc3)CO4)c3n[nH]cc3c2c1 [Example #314, N6-(8-methoxy-2H-pyrazolo[3,4-c]quinolin-4-yl)-N3-phenethyl-2H-benzo[b][1,4]oxazine-3,6-diamine]",10 to 100,10 to 100
"COc1cccc2c1nc(Nc1ccc(N3CCSCC3)cc1)c1n[nH]cc12 [Example #247, (6-Methoxy-2H-pyrazolo[3,4-c]quinolin-4-yl)-(4-thiomorpholin-4-yl-phenyl)-amine]",10 to 100,100 to 1000
"COc1cc2nc(Nc3ccc4c(c3)NCCO4)c3n[nH]cc3c2cc1OC [Example #151, (3,4-Dihydro-2H-benzo[1,4]oxazin-6-yl)-(7,8-dimethoxy-2H-pyrazolo[3,4-c]quinolin-4-yl)-amine]",10 to 100,100 to 1000
"COc1ccc2nc(Nc3cc(C)n[nH]3)c3[nH]ncc3c2c1 [Example #96, (8-Methoxy-3H-pyrazolo[3,4-c]quinolin-4-yl)-(5-methyl-2H-pyrazol-3-yl)-amine]",10 to 100,10 to 100
"COc1ccc2nc(Nc3ccc(N4CCOCC4)cc3)c3n[nH]cc3c2c1 [Example #54, (8-Methoxy-2H-pyrazolo[3,4-c]quinolin-4-yl)-(4-morpholin-4-yl-phenyl)-amine]",10 to 100,10 to 100
"COc1ccc2nc(Nc3ccc(N4CCOCC4)c(OC)c3)c3n[nH]cc3c2c1 [Example #319, 8-methoxy-N-(3-methoxy-4-morpholinophenyl)-2H-pyrazolo[3,4-c]quinolin-4-amine]",10 to 100,100 to 1000
"COc1ccc2c(c1)nc(Nc1ccc3[nH]ncc3c1)c1n[nH]cc12 [Example #256, (1H-Indazol-5-yl)-(7-methoxy-2H-pyrazolo[3,4-c]quinolin-4-yl)-amine]",10 to 100,100 to 1000
"COc1ccc2nc(Nc3ccc4[nH]c(=O)oc(=O)c4c3)c3n[nH]cc3c2c1 [Example #117, 6-(8-Methoxy-2H-pyrazolo[3,4-c]quinolin-4-ylamino)-1H-benzo[d][1,3]oxazine-2,4-dione]",100 to 1000,100 to 1000
"COc1ccc2nc(Nc3cc[nH]n3)c3n[nH]cc3c2c1 [Example #66, (8-Methoxy-2H-pyrazolo[3,4-c]quinolin-4-yl)-(1H-pyrazol-3-yl)-amine]",10 to 100,100 to 1000
"COc1ccc2nc(Nc3ccc(F)cc3)c3n[nH]cc3c2c1 [Example #310, N-(4-fluorophenyl)-8-methoxy-2H-pyrazolo[3,4-c]quinolin-4-amine]",10 to 100,100 to 1000
"COc1ccc2nc(Nc3ccc4c(c3)N=C(NCCCO)CO4)c3n[nH]cc3c2c1 [Example #313, 3-((6-((8-methoxy-2H-pyrazolo[3,4-c]quinolin-4-yl)amino)-2H-benzo[b][1,4]oxazin-3-yl)amino)propan-1-ol]",10 to 100,10 to 100
"Ic1ccc2nc(Nc3ccc(N4CCOCC4)cc3)c3[nH]ncc3c2c1 [Example #355, 8-iodo-N-(4-morpholinophenyl)-3H-pyrazolo[3,4-c]quinolin-4-amine]",10 to 100,100 to 1000
"COc1ccc2nc(Nc3ccc(C#N)cc3)c3n[nH]cc3c2c1 [Example #59, 4-(8-Methoxy-2H-pyrazolo[3,4-c]quinolin-4-ylamino)-benzonitrile]",100 to 1000,100 to 1000
